Measured values reported in patent US20240294541A1, “COMPOUNDS CONSTITUTING C20-MODIFIED SALINOMYCIN DERIVATIVES, A METHOD FOR OBTAINING THE SAME, A COMPOSITION CONTAINING THE SAME AND A USE OF SAID COMPOUNDS” (FILECLO SPOLKA Z OGRANICZONA ODPOWIEDZIALNOSCIA, priority 2021, published 2024).

Legend:
Assay type in all cases: cell-based
cancer cells = test: In vitro cytotoxic activity on the panel of cancer cell lines (MTT/SRB), general statements; conditions: Tables 3.1, 3.2, 4 and 5; parent compound salinomycin
[1] = test system: A2780Cis (cisplatin-resistant human ovarian cancer); test: In vitro cytotoxicity, SRB assay, A2780Cis; conditions: for IC50: Homo sapiens, A2780cis, read-out: IC50 (nM) A2780Cis
Hs294T (human melanoma) = test: cells; conditions: Table 4; for IC50: Hs 294T, Hs294T human melanoma cells, read-out: IC50 (nM) Hs294T; for SI Hs294T: selectivity coefficient vs normal BALB/3T3 fibroblasts
[2] = test system: PLC/PRF/5 (human liver cancer); test: cells; conditions: Table 4; for IC50: PLC/PRF/5 human liver cancer cells, read-out: IC50 (nM) PLC/PRF/5; for SI PLC/PRF/5: selectivity coefficient vs normal BALB/3T3 fibroblasts
[3] = test system: SNU-16 (human gastric cancer); test: cells; conditions: Table 4; for IC50: SNU-16 human gastric cancer cells, read-out: IC50 (nM) SNU-16; for SI SNU-16: selectivity coefficient vs normal BALB/3T3 fibroblasts
[4] = test system: MIA PaCa-2 (human pancreatic cancer); test: cells; conditions: Table 4; for IC50: MIA PaCa-2 human pancreatic cancer cells, read-out: IC50 (nM) MIA PaCa-2; for SI MIA PaCa-2: selectivity coefficient vs normal BALB/3T3 fibroblasts
[5] = test system: BALB/3T3 (normal mouse fibroblasts); test: In vitro cytotoxicity, SRB assay, normal BALB/3T3 fibroblasts; conditions: Table 4; BALB/3T3 normal mouse fibroblasts; read-out: IC50 (nM) BALB3T3 normal cells
[6] = test system: MV-4-11 (human biphenotypic leukaemia); test: In vitro cytotoxicity, MTT assay, MV-4-11; conditions: for IC50: Homo sapiens, MV4-11, read-out: IC50 (nM) MV4-11
[7] = test system: NCI-H358 (human lung cancer); test: cells; conditions: Table 4; for IC50: NCI-H358 human lung cancer cells, read-out: IC50 (nM) NCI-H358; for SI NCI-H358: selectivity coefficient vs normal BALB/3T3 fibroblasts

Compound | anti-proliferative effect compared to that of the parent compound (cancer cells) | SI A2780Cis [1] | IC50 [1] [nM] | IC50 (Hs294T (human melanoma)) [nM] | SI Hs294T (Hs294T (human melanoma)) | IC50 [2] [nM] | SI PLC/PRF/5 [2] | IC50 [3] [nM] | SI SNU-16 [3] | IC50 [4] [nM] | SI MIA PaCa-2 [4] | IC50 [5] [nM] | SI MV4-11 [6] | IC50 [6] [nM] | IC50 [7] [nM] | SI NCI-H358 [7]
CC[C@@H](C(=O)[C@@H](C)[C@@H](O)[C@H](C)[C@@H]1O[C@@H]([C@@H](CC)C(=O)O)CC[C@@H]1C)[C@H]1O[C@]2(C=C[C@@H](NC(=S)SC)[C@]3(CC[C@@](C)([C@H]4CC[C@](O)(CC)[C@H](C)O4)O3)O2)[C@H](C)C[C@@H]1C [FLC-00475-1•Na] | several times more potent compared to that of the parent compound | – | – | – | – | – | – | – | – | – | – | – | – | – | – | –
CC[C@@H](C(=O)[C@@H](C)[C@@H](O)[C@H](C)[C@@H]1O[C@@H]([C@@H](CC)C(=O)O)CC[C@@H]1C)[C@H]1O[C@]2(C=C[C@@H](NC(=O)c3ccc(OC(F)(F)F)cc3)[C@]3(CC[C@@](C)([C@H]4CC[C@](O)(CC)[C@H](C)O4)O3)O2)[C@H](C)C[C@@H]1C [FLC-00486-1•Na] | several times more potent compared to that of the parent compound | – | – | – | – | – | – | – | – | – | – | – | – | – | – | –
CC[C@@H](C(=O)[C@@H](C)[C@@H](O)[C@H](C)[C@@H]1O[C@@H]([C@@H](CC)C(=O)O)CC[C@@H]1C)[C@H]1O[C@]2(C=C[C@@H](NC(=O)c3ccc(F)cc3)[C@]3(CC[C@@](C)([C@H]4CC[C@](O)(CC)[C@H](C)O4)O3)O2)[C@H](C)C[C@@H]1C [FLC-00470-1•Na] | several times more potent compared to that of the parent compound | – | – | – | – | – | – | – | – | – | – | – | – | – | – | –
CC[C@@H](C(=O)[C@@H](C)[C@@H](O)[C@H](C)[C@@H]1O[C@@H]([C@@H](CC)C(=O)O)CC[C@@H]1C)[C@H]1O[C@]2(C=C[C@@H](NC(=O)C3CCCCC3)[C@]3(CC[C@@](C)([C@H]4CC[C@](O)(CC)[C@H](C)O4)O3)O2)[C@H](C)C[C@@H]1C [FLC-00464-1•Na] | several times more potent compared to that of the parent compound | – | – | – | – | – | – | – | – | – | – | – | – | – | – | –
CC[C@@H](C(=O)[C@@H](C)[C@@H](O)[C@H](C)[C@@H]1O[C@@H]([C@@H](CC)C(=O)O)CC[C@@H]1C)[C@H]1O[C@]2(C=C[C@@H](NC(=O)OCCF)[C@]3(CC[C@@](C)([C@H]4CC[C@](O)(CC)[C@H](C)O4)O3)O2)[C@H](C)C[C@@H]1C [FLC-00437-1•Na] | – | 40.8 | 4.7 | 264 | 0.7 | 42.3 | 4.5 | 342 | 0.6 | 45.7 | 4.2 | 192 | 37.5 | 5.11 | 184 | 1.04
CC[C@@H](C(=O)[C@@H](C)[C@@H](O)[C@H](C)[C@@H]1O[C@@H]([C@@H](CC)C(=O)O)CC[C@@H]1C)[C@H]1O[C@]2(C=C[C@@H](NC(=O)C(=O)NCCCc3ccccc3)[C@]3(CC[C@@](C)([C@H]4CC[C@](O)(CC)[C@H](C)O4)O3)O2)[C@H](C)C[C@@H]1C [FLC-00458-1•Na] | – | 29.6 | 24.5 | 1590 | 0.5 | 84.4 | 8.6 | 323 | 2.2 | 61.9 | 11.7 | 727 | 31.3 | 23.2 | 368 | 1.97
